Data published in paper PMC7993375, “Discovery of novel quinoline-based analogues of combretastatin A-4 as tubulin polymerisation inhibitors with apoptosis inducing activity and potent anticancer effect” (Journal of Enzyme Inhibition and Medicinal Chemistry, 2021).

System: MCF-7 cells
Test: Wound healing assay
Format: cell-based, human
Procedure: MCF-7 were grown in 6-well plates for 24 h, and scratches were made using pipette tip and washed with PBS to remove non-adherent cell debris. Subsequently, the cells were treated with different concentrations of 12c for 24 h. The migrations across the wound area were photographed under a phase contrast microscopy.

COc1cc(C2=NC(=Cc3cc4ccc(C)cc4nc3OC)C(=O)O2)cc(OC)c1OC [Compound 12c, 4-[(2-Methoxy-7-methylquinolin-3-yl)methylene]-2–(3,4,5-trimethoxyphenyl) oxazol-5(4H)-one]
MCF-7 cell migration into wound area: significantly inhibited in a dose-dependent manner
